According to publication PMC4784888, “Activity Based High-Throughput Screening for Novel O-GlcNAc Transferase Substrates Using a Dynamic Peptide Microarray” (PLoS ONE, 2016):
Values belong to the substance of their own block, whether it stands above or below them. Where no end group is shown, it is not given here.

Assays:
Format in all cases: biochemical, human
[1] = tested on: purified m-OGT; test: Ala scan of RBL-2_410–422 on peptide microarray; settings: 1 mM UDP-GlcNAc, 0.2 μg/μL purified m-OGT; for OGT activity against RBL-2_410–422 Ala mutants (in words): extra CG at NH2 terminal
Description: (§1) One step OGT purification was performed using His60 Ni Gravity Flow Columns (Clontech) according to the manufacturer’s instructions. Briefly, the nickel column was equilibrated with a buffer containing 50 mM sodium phosphate, 300 sodium chloride, 20 mM imidazole, and pH 7.4, followed by incubation with cell lysate containing His tag OGT for 1h at 4°C. After washing several times using buffer containing 50 mM sodium phosphate, 300 sodium chloride, 40 mM imidazole, and pH 7.4, the recombinant OGT was eluted using elution buffer containing 50 mM sodium phosphate, 300 mM sodium chloride, 300 mM imidazole, and pH 7.4. The eluted fraction was concentrated through a 100,000 Da molecular weight cut off Amicon unit by centrifugation 10 min at 5000 RPM at 4°C.
(§2) Peptide O-GlcNAcylation was assessed using PamChip 4 microarray chips with a PamStation 12 instrument (Pamgene international, The Netherlands). The OGT enzyme reaction was prepared essentially as described[26] with minor modifications. Briefly, before addition of the enzyme reaction, the microarray was blocked with blocking buffer (1% BSA in TBS). After 30 cycles (2 cycles/min) blocking, the blocking buffer was aspirated and the microarray was incubated with 40 μL of the enzyme reaction containing OGT (lysate or purified), OGT reaction buffer (50 mM Tris—HCl, pH 7.5;1 mM DTT;12.5 mM MgCl2), a 1:1 pre-incubated mixture of anti-O-GlcNAc and FITC conjugated secondary antibody, and the sugar donor UDP-GlcNAc or water as a control for 480 cycles (2 cycles/min) at 30°C. The microarray was run in parallel by pumping the reaction up and down through the porous membrane at every cycle and a tiff image was obtained at every 20 cycles by a CCD camera inside the PamStation. O-GlcNAcylation of each peptide was detected by a fluorescent signal which was produced by an FITC conjugated antibody bound to the O-GlcNAc moiety on the peptide.
(§3) Image analysis was performed using BioNavigator 6 software (Pamgene international, The Netherlands). Briefly, each image was quantified by automated array grid finding and subsequent quantification of signal and local background for each individual spot. In this work, the signal median-minus-background value was used as the quantitative parameter for the O-GlcNAcylation of the peptide.
Synthesis of all the peptides was achieved by following a standard Fmoc SPPS strategy on a Symphony Multiple Peptide Synthesizer and starting from rink amide resin. The following Fmoc amino acids were used: Fmoc-Cys(Trt)-OH, Fmoc-Gly-OH, Fmoc-Lys(Boc)-OH, Fmoc-Glu(Otbu)-OH, Fmoc-Asn(Trt)-OH, Fmoc-Ser(tBu)-OH, Fmoc-Thr(tBu)-OH, Fmoc-Ala-OH, Fmoc-Pro-OH, Fmoc-Val-OH. Deprotection was performed using 20% piperidine in DMF, and coupling was performed using 1:0.9:2 amino acid/ HBTU/DIPEA in DMF. After completion of the synthesis, the protected peptidyl resins were incubated with a 10 mL mixture of TFA (trifluoroacetic acid): H2O: triisopropylsilane (TIPS): 1, 2-ethanedithiol (EDT) (9:0.5:0.25:0.25, v/v/v/v) and allowed to stir for 2 h at room temperature under a nitrogen atmosphere. The cleaving mixture was filtered and the resin was washed with TFA (2 mL) and DCM (4 mL). The residue was precipitated by treatment of precooled diethyl ether and centrifugation. Two times washing and centrifugation yielded the crude products in a pellet. The precipitated peptides were dissolved in water, frozen, and lyophilized. All products were stored at -20°C. Crude peptide analysis was carried out by LC-MS.
To further confirm this and investigate the role of this and surrounding amino acid residues in our activity based assay, we resynthesized the RBL-2 peptide present on the microarray and performed an Ala scan, thus replacing of all the possible O-GlcNAc sites (Ser and Thr) in RBL-2_420–422 (Fig 4A). To immobilize the peptides on the chip, all the peptides were prepared with an extra CG at the NH2 terminal to allow immobilization on the maleimide-based chip surface. […]

[2] = tested on: m-OGT; test: UDP-Glo assay of RBL-2_410–422 peptides
Description: as §1
In this work OGT activity was also determined using UDP-Glo™ Glycosyltransferase Assay according to the manufacturer’s instructions. This assay evaluates O-GlcNAcylation through monitoring UDP formation in glycosyltransferase reactions by luminescence. Briefly, OGT reactions were carried out in 100 μL final volume containing 0.5 mM UDP-GlcNAc, 6 μg purified/60 μg lysate enzyme, 100 μM peptide in OGT reaction buffer (50 mM Tris—HCl, pH 7.5;1 mM DTT;12.5 mM MgCl2). Reactions were incubated at room temperature for 2h. At the end of that period, each reaction was transferred in triplicate into a 96-well white microplate and was mixed with a 1:1 ratio of UDP-Glo Detection Reagent. After incubation at room temperature for 1h, the luminescence was recorded with a Mithras LB940 Multimode microplate reader using Mikro Win 2000 software (Berthold Technology, Germany).
To further confirm this and investigate the role of this and surrounding amino acid residues in our activity based assay, we resynthesized the RBL-2 peptide present on the microarray and performed an Ala scan, thus replacing of all the possible O-GlcNAc sites (Ser and Thr) in RBL-2_420–422 (Fig 4A). To immobilize the peptides on the chip, all the peptides were prepared with an extra CG at the NH2 terminal to allow immobilization on the maleimide-based chip surface. Cys 415 was replaced by an Ala to avoid cyclisation by disulfide bond formation or dual modes of immobilization (S2 Fig). […] The mutants T421A decreased the O-GlcNAcylation of RBL-2_420–422 peptide by 40% compared to the control (wild type with C415A). […] In addition, OGT activity against these peptides was further validated using the UDP-Glo assay, which measures the amount of UDP produced when GlcNAc is transferred from UDP-GlcNAc to the sugar accepting peptide. […] This might be because the UDP assay is more sensitive than the antibody-based detection.
Fig 4 S420A is a possible O-GlcNAc site in the RBL-2 protein. A, peptide mutant used for an Ala scan. For immobilization purposes, peptides were prepared with an extra CG at the N-terminus and Cys 415 was replaced by Ala. B, OGT activity against RBL-2_410–422 peptide mutants was determined using peptide microarray analysis with 0.2 μg/μL purified m-OGT and 1 mM UDP-GlcNAc. C, UDP-Glo assay was used to measure O-GlcNAcylation of RBL-2_410–422 peptide mutants as well. D, kinetic signals from the same microarray experiment of panel B are shown.
O-GlcNAcylation of wild type RBL-2-410-422 and C415A peptide was determined using both the UDP assay(A) and the microarray assay (B) with 1 mM UDP-GlcNAc and 0.2 μg/μL purified m-OGT. […] (TIF) Click here for additional data file.

[3] = tested on: purified m-OGT; test: Inhibition of OGT activity by RBL-2_S420A 410–422 peptide on nuclear receptor interaction peptide microarray; settings: purified m-OGT (0.2 μg/μL), UDP-GlcNAc 0.5 mM; for inhibition of OGT activity (in words): peptide 0.5 mM
Description: as §1, §2, §3
We then used the identified substrate sequence as a starting point towards the discovery of novel selective OGT inhibitors. […] To test it, we determined its inhibitory effect on the O-GlcNAcylation of two OGT substrates identified in our work and a known OGT inhibitor was used as a positive control.
Fig 5 The RBL-2_S420A 410–422 peptide inhibited OGT activity. The inhibitory effect of RBL-2_S420A 410–422 peptide on OGT activity was determined on the nuclear receptor interaction peptide microarray. […]

[4] = microarray, control wild type with C415A
[5] = UDP-Glo, luminescence, 0.5 mM UDP-GlcNAc, 6 μg purified enzyme, 100 μM peptide, 50 mM Tris-HCl pH 7.5, room temperature 2 h, triplicate

Substance: C415A: RBL-2_410–422 peptide with Cys 415 replaced by an Ala (CGKENSPAVTPVSTA-NH2; UniProt Q08999 410-422, looked up, variant C415A)
C415A effect on O-GlcNAcylation, overall statement ([1]; UDP assay and microarray): modest effect on O-GlcNAcylation
OGT activity of C415A compared with wild type, UDP assay ([2]; UDP assay, 1 mM UDP-GlcNAc, 0.2 μg/μL purified m-OGT): modest increase in OGT activity

inhibition of O-GlcNAcylation of NCOA6 ([3]; 500 μM S420A peptide, NCOA6_1479–1501 substrate): 50%
inhibition of O-GlcNAcylation of WIPI 1 ([3]; 500 μM S420A peptide, WIPI 1 substrate): 50%
inhibition of OGT activity (in words) ([3]; listed as RBL-2_S420A 420–422): significant inhibition of OGT activity
Substance: RBL-2_S420A 410–422: S420A mutation peptide of RBL-2 410–422 tested as OGT inhibitor (CGKENSPAVTPVATA-NH2)
inhibition of OGT activity (in words) [3]: still binds to the OGT active site and therefore inhibited OGT activity

Substance: S413A: Ala scan mutant of RBL-2_410–422
OGT activity against RBL-2_410–422 Ala mutants (in words) [1, 4]: did not show any effect
O-GlcNAcylation activity in solution (in words) [2, 5]: consistent with the microarray results

Substance: S420A: Ala scan mutant of RBL-2_410–422 (CGKENSPAVTPVATA-NH2)
OGT activity against RBL-2_410–422 Ala mutants (in words) [1, 4]: complete loss of OGT activity
O-GlcNAcylation activity in solution (in words) [2, 5]: consistent with the microarray results

Substance: T417A: Ala scan mutant of RBL-2_410–422 (CGKENSPAVAPVSTA-NH2)
OGT activity against RBL-2_410–422 Ala mutants (in words) [1, 4]: complete loss of OGT activity
remaining O-GlcNAcylation [2, 5]: 20%

Substance: T421A: Ala scan mutant of RBL-2_410–422 (CGKENSPAVTPVSAA-NH2)
decrease of O-GlcNAcylation compared to control [1, 4]: 40%
O-GlcNAcylation activity in solution (in words) [2, 5]: consistent with the microarray results
